Earlier results on one compound are cited in patent US20080044462A1 (Collegium Pharmaceutical, Inc. Delaware, priority 2006, published 2008).

The conditions of the series: background statement, no test described.

For the compound `CC(NC(C)(C)C)C(=O)c1cccc(Cl)c1` (stereo not shown) [free base form of bupropion, 1-(3-chlorophenyl)-2[(1,1,dimethylethyl)amino]-1-propanone], the “stability in the presence of oxygen” value was “highly unstable”.
